Assay results from PubChem BioAssay (NCI).
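Tested at 5 concentrations; 48 h exposure; 96-well plates; endpoints linearly interpolated, else capped at highest concentration. Definition used: TGI = concentration required for complete inhibition of growth.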

Key:
Test in all cases: NCI-60 cell line screen, 48 h
KM12 colon = system: KM12 colon
HT29 colon = system: HT29 colon
IGROV1 ovarian = system: IGROV1 ovarian
LOX IMVI melanoma = system: LOX IMVI melanoma
MCF7 breast = system: MCF7 breast
HOP-92 NSCLC = system: HOP-92 NSCLC
SN12C renal = system: SN12C renal
HCC-2998 colon = system: HCC-2998 colon
SNB-19 CNS = system: SNB-19 CNS
DU-145 prostate = system: DU-145 prostate
HOP-62 NSCLC = system: HOP-62 NSCLC
MDA-MB-435 = system: MDA-MB-435
OVCAR-8 ovarian = system: OVCAR-8 ovarian
PC-3 prostate = system: PC-3 prostate
MDA-N = system: MDA-N
SF-268 CNS = system: SF-268 CNS
MOLT-4 leukemia = system: MOLT-4 leukemia
SR leukemia = system: SR leukemia
NCI/ADR-RES ovarian = system: NCI/ADR-RES ovarian

Compound	TGI (KM12 colon) [µM]	TGI (HT29 colon) [µM]	TGI (IGROV1 ovarian) [µM]	TGI (LOX IMVI melanoma) [µM]	TGI (MCF7 breast) [µM]	TGI (HOP-92 NSCLC) [µM]	TGI (SN12C renal) [µM]	TGI (HCC-2998 colon) [µM]	TGI (SNB-19 CNS) [µM]	TGI (DU-145 prostate) [µM]	TGI (HOP-62 NSCLC) [µM]	TGI (MDA-MB-435) [µM]	TGI (OVCAR-8 ovarian) [µM]	TGI (PC-3 prostate) [µM]	TGI (MDA-N) [µM]	TGI (SF-268 CNS) [µM]	TGI (MOLT-4 leukemia) [µM]	TGI (SR leukemia) [µM]	TGI (NCI/ADR-RES ovarian) [µM]
CC(=O)OCc1ccc2oc(=O)c(C(=O)Oc3cccc(Cl)c3)cc2c1	> 100	80.2	> 100	> 100	61.6	43.5	> 100	39.3	> 100	> 100	> 100	> 100	> 100	34.4	> 100	> 100	> 100	> 100	> 100
Cc1ccc2c3c(cnc2n1)C(=O)OCCN3C	> 100	> 100	> 100	> 100	> 100	> 100	> 100	> 100	> 100	> 100	> 100	> 100	> 100	> 100	> 100	> 100	> 100	> 100	> 100
